From US6664285B1, “Use of cell membrane penetrating indigoid bisindole derivatives” (priority 1999, dated 2003)
Like-named read-outs stand apart in the source and are kept apart here.

Key:
CXF280 (colon) = test: Colony-forming assay; assay type: cell-based, human
BXF1301 (bladder) = test: Colony-forming assay; assay type: cell-based, human
[1] = system: LXFA289 (lung adenocarcinoma); test: Colony-forming assay; assay type: cell-based, human; conditions: for IC50: read-out: IC50 colony formation
MEXF515LX (melanoma) = test: Colony-forming assay; assay type: cell-based, human
[2] = system: human tumor xenograft LXFL 529; test: In vivo testing in nude mice bearing subcutaneous tumor xenograft; conditions: days 1, 4, 8, 11, 15, 18, 22
Method: Compound of Examples 1, 4, 6, 8, 9 and 10 were subjected to in vivo testing in nude mice bearing subcutaneously growing human tumor xenograft LXFL 529. The indigoid bisindole derivatives were applied intraperitoneally to the animals in doses and according to the schedule as described in Table 4.
The experiments were run for 21 or 28 days. Anti-tumor activity was evaluated comparing the median tumor volume relative to control, expressed as %T/C, wherein T is the test group and C the vehicle control group. In Table 4, anti-tumor activity is given according to an activity rate scale.

MCF7X (mammary) = test: Colony-forming assay; assay type: cell-based, human; conditions: for IC50: read-out: IC50 colony formation
HT29X (colon) = test: Colony-forming assay; assay type: cell-based, human; conditions: for IC50: read-out: IC50 colony formation
OVXF1353 (ovarian) = test: Colony-forming assay; assay type: cell-based, human; conditions: for IC50: read-out: IC50 colony formation
Method: The anti-tumor activity of the compounds was evaluated via a colony-forming-assay as described e.g. by D. P. Berger et al. in Annals of Oncology 1, pages 333-341 (1 990), “The clonongenic assay with human tumor xenografts, evaluation, predictive values and application for drug screening”.
The experiments were conducted using various tumor cell lines, in particular mammary carcinoma (MAXF), lung adenocarcinoma (LXFA), large-cell lung carcinoma (LXFL), small-cell lung carcinoma (LXFS), colon carcinoma (CXF), melanoma (MEXF), pancreatic carcinoma (PAXF), renal carcinoma (RXF), ovarian carcinoma (OVXF) and bladder carcinoma (BXF).

PAXF736 (pancreatic) = test: Colony-forming assay; assay type: cell-based, human
[3] = system: LXFA526 (lung adenocarcinoma); test: Colony-forming assay; assay type: cell-based, human; conditions: for IC50: read-out: IC50 colony formation
MEXF514 (melanoma) = test: Colony-forming assay; assay type: cell-based, human; conditions: for IC50: read-out: IC50 colony formation
PAXF546 (pancreatic) = test: Colony-forming assay; assay type: cell-based, human
[4] = system: LXFS650 (lung small-cell); test: Colony-forming assay; assay type: cell-based, human
[5] = read-out: IC50 colony formation
[6] = type printed pancreatic, xenograft printed HT29X

Row | Compound | IC50 (MCF7X (mammary)) | IC50 (MEXF514 (melanoma)) | IC70 colony formation [1] | IC70 colony formation (MCF7X (mammary)) | IC70 colony formation (HT29X (colon); colon HT29X) | IC70 colony formation (OVXF1353 (ovarian)) | IC50 (HT29X (colon); colon HT29X) | IC70 colony formation [3] | IC50 [3] | IC70 colony formation (MEXF514 (melanoma)) | other results
1 | O=C1/C(=C2\Nc3ccccc3C2=O)Nc2ccccc21 [Example 11, Indigo] |  |  | 12.3 µM |  | 26.1 µM | 16.7 µM |  |  |  |  | IC50 (HT29X (colon); Homo sapiens, colon HT29X): 3.3 µM; IC50 ([1]; Homo sapiens): 3.5 µM; IC50 (OVXF1353 (ovarian); Homo sapiens): 3.9 µM
2 | O=C1Nc2ccc(F)cc2C1=C1Nc2ccccc2C1=O [Example 5, 5-Fluoroindirubin] | < 1 µM |  |  | <1.0 µM |  | 6.1 µM |  |  |  |  | IC70 colony formation (PAXF736 (pancreatic)): 1.1 µM; IC50 (PAXF736 (pancreatic); [5]): < 1 µM; IC50 (OVXF1353 (ovarian)): < 1 µM
3 | O=C1Nc2ccc(I)cc2/C1=C1/Nc2ccccc2C1=O [Example 2, 5-Iodoindirubin] | < 1 µM |  |  | 2.5 µM | >30 µM |  | 6.3 µM | 23 µM | 8 µM |  | IC70 colony formation (PAXF546 (pancreatic)): >30 µM; IC50 (PAXF546 (pancreatic); [5]): 18 µM; IC70 colony formation [4]: 24.5 µM; IC50 [4, 5]: 13.7 µM
4 | O=C1Nc2ccc([N+](=O)[O-])cc2C1=C1Nc2ccccc2C1=O [Example 7, 5-Nitroindirubin] | < 1 µM | 4.9 µM |  | 15.1 µM |  |  |  |  |  | >10.0 µM | 

Second part, led by results:

Row | IC50 (MCF7X (mammary)) | IC50 (MEXF514 (melanoma)) | Compound | IC70 colony formation [1] | IC70 colony formation (MCF7X (mammary)) | IC70 colony formation (HT29X (colon); colon HT29X) | IC70 colony formation (OVXF1353 (ovarian)) | IC50 (HT29X (colon); colon HT29X) | IC70 colony formation [3] | IC50 [3] | IC70 colony formation (MEXF514 (melanoma)) | other results
5 | 2.4 µM |  | O=C1Nc2ccc(I)cc2/C1=C1/Nc2ccccc2/C1=N\O [Example 9, 5-Iodoindirubine-3′-oxime] | 0.7 µM | 10.4 µM |  |  |  |  |  |  | IC70 colony formation (CXF280 (colon)): 16.3 µM; IC50 (CXF280 (colon); [5]): 10.7 µM; IC70 colony formation (BXF1301 (bladder)): 5.8 µM; IC50 (BXF1301 (bladder); [5]): 4 µM; IC50 [1]: 0.05 µM; IC70 colony formation (MEXF515LX (melanoma)): 4.9 µM; IC50 (MEXF515LX (melanoma); [5]): 2.6 µM; activity rating ([2]; 100 mg/kg/day i.p.): − (inactive T/C > 50%); activity rating ([2]; 300 mg/kg/day i.p.): + (tumor inhibition T/C > 25-50%)
6 | < 1 µM | 3.4 µM | O=C1Nc2ccc(Br)cc2/C1=C1/Nc2ccccc2C1=O [Example 3, 5-Bromoindirubin] |  | <1.0 µM | 17.3 µM |  | < 1 µM | 14.4 µM | 2.3 µM | 8.0 µM | IC70 colony formation (HT29X (colon); [6]): >30 µM; IC50 (HT29X (colon); [6]): 13.2 µM
